Biological target: T1, recombinant HIV reverse transcriptase (HIV RTR) (Human immunodeficiency virus type 1 group M subtype B, UniProt P04585)
T1 construct: recombinant HIV reverse transcriptase
Assay: Reverse Transcriptase Assay (incorporation of tritiated deoxyguanosine monophosphate into acid-precipitable cDNA)
Assay type: biochemical
Conditions: for inhibition of incorporation of deoxyguanosine monophosphate by HIV reverse transcriptase (in words): at the Km values of dGTP and poly r(C).oligo d(G)12-18; for IC50: poly r(C).oligo d(G)12-18 template, dGTP at about Km, 37° C., 45 minutes, read-out: calculated IC50
Experimental: The assay measures the incorporation of tritiated deoxyguanosine monophosphate by recombinant HIV reverse transcriptase (HIV RTR) (or other RT) into acid-precipitable cDNA at the Km values of dGTP and poly r(C).oligo d(G)12-18.
Thirty uL of a reaction mixture containing equal volumes of: 500 mM Tris.HCl (pH 8.2), 300 mM MgCl2, 1200 mM KCl, 10 mM DTT, 400 μg/mL poly r(c).oligo d(G) [prepared by dissolving 1.5 mg (25 U) poly r(C).oligo d(G) in 1.5 ml sterile distilled H2 O and diluting to 400 μg/ml], 0.1 μCi/μl [^3 H] dGTP, 160 μM dGTP, was added to 10 μl sterile distilled H2 O, 2.5 μl of potential inhibitor. Ten μL of 3.2 nM purified HIV RTR were added to start the reaction. The mixture was incubated at 37° C. for 45 minutes.
After incubation was complete, the tubes were cooled in ice for 5 minutes. Ice-cold 13% TCA containing 10 mM NaPPi (200 μl) was added and the mixture incubated on ice for 30 minutes. The precipitated cDNA was removed by filtration using presoaked glass filters [TCA, NaPPi ]. The precipitate was then washed with 1N HCl, 10 mM NaPPi. The filter discs were then counted in a Packard scintillation counter.
Under these conditions [dGTP] and poly r(C).oligo d(G)12-18 each are approximately equal to the appropriate Km value. Approximately 5-6,000 cpm of [^3 H] GMP are incorporated into acid-precipitable material. The RT reaction is concentration- and time-dependent.

Compound | inhibition of incorporation of deoxyguanosine monophosphate by HIV reverse transcriptase (in words) | IC50
Cc1[nH]c(=O)c(CCc2nc3ccccc3o2)cc1C(C)O (racemic) [Compound (I), (+/-)-3-[2-(benzoxazol-2-yl)ethyl]-5-(1-hydroxyethyl)-6-methyl-2(1H)-pyridinone] | inhibit this incorporation | ~18.7 µM
CCc1cc(CCc2nc3ccccc3o2)c(=O)[nH]c1CO [Compound (II), 3-[2-(benzoxazol-2-yl)ethyl]-5-ethyl-6-hydroxymethyl-2(1H)-pyridinone] | inhibit this incorporation | ~0.044 µM
